# What was measured:
# [1] = Dynamic solubility in water, SGF, FaSSIF and FeSSIF; type: physicochemical; design: S (dynamic solubility): unit not given here; conditions: listed as Phosphate salt crystal form A-V; for S (dynamic solubility): 37° C., feed 10 mg/mL
# How it was run: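 Free form and salt crystal forms tested over time in water, SGF (pH 1.8), FaSSIF (pH 6.5) and FeSSIF (pH 5.0), simulated fluids made with SIF powder. At each time point samples were centrifuged, passed through 0.45 μm PTFE, and filtrate concentration (HPLC) and pH measured.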
# [2] = Hygroscopicity by dynamic moisture sorption (DVS); type: physicochemical; conditions: DVS, listed as Phosphate salt crystal form A-V
# How it was run: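 Mass change of salt and free-form crystal samples recorded at 25° C over a 0% RH-95% RH-0% RH cycle. Steps were 10% RH (last step 5%) with a dm/dt equilibrium criterion of 0.002%/min.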
# [3] = test system: human lung cancer cells EBC-1; test: Efficacy in nude mouse tumor-bearing model of human lung cancer cells EBC-1; type: in vivo, Balb/c nude mouse
# How it was run: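 Female BALB/c nude mice bearing subcutaneous EBC-1 xenografts (5×10^6 cells; 150-200 mm^3 at start), 6/group, dosed orally once daily for about 3 weeks at 15 and 7.5 mg/kg (free-base equivalent) in 0.1% CMC-Na. Tumors measured twice weekly; T/C (%) from relative tumor volume versus vehicle.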
# [4] = Solid-state stability evaluation (XRPD, HPLC); type: physicochemical; conditions: listed as Phosphate salt crystal form A-V
# Experimental: The following 6 test samples were placed under 25° C./60% RH and 40° C./75% RH conditions for 1 week, and then the physical and chemical stability of the samples was tested by XRPD and HPLC.
# At the same time, after the p-toluenesulfonate salt crystal form A-II and crystal form B-III solids were placed at 80° C. for 24 hours, the physical and chemical stability of the samples were tested by XRPD and HPLC.
smiles,measurement,setting,value
"O=C(Nc1ccc(F)cc1)C1(C(=O)Nc2ccc(Oc3ccnc4cc(OCCCN5CCOCC5)c5c(c34)OCCO5)c(F)c2)CC1 [Example 5, N-(3-fluoro-4-((5-(3-morpholinopropoxy)-2,3-dihydro-[1,4]dioxano[2,3-f]quinolin-10-yl)oxy)phenyl)-N-(4-fluorophenyl)cyclopropane-1,1-dicarboxamide]",S (dynamic solubility),"[1]; FaSSIF, 1 hour",0.028
same,pH of the filtrate,"[1]; FaSSIF, 1 hour",5.8
same,S (dynamic solubility),"[1]; FaSSIF, 2 hours",0.030
same,pH of the filtrate,"[1]; FaSSIF, 2 hours",5.8
same,S (dynamic solubility),"[1]; FaSSIF, 4 hours",0.024
same,pH of the filtrate,"[1]; FaSSIF, 4 hours",5.8
same,S (dynamic solubility),"[1]; FaSSIF, 24 hours",0.080
same,pH of the filtrate,"[1]; FaSSIF, 24 hours",5.3
same,S (dynamic solubility),"[1]; FeSSIF, 1 hour",1.5
same,pH of the filtrate,"[1]; FeSSIF, 1 hour",4.9
same,S (dynamic solubility),"[1]; FeSSIF, 2 hours",1.4
same,pH of the filtrate,"[1]; FeSSIF, 2 hours",5.0
same,S (dynamic solubility),"[1]; FeSSIF, 4 hours",1.3
same,pH of the filtrate,"[1]; FeSSIF, 4 hours",5.0
same,S (dynamic solubility),"[1]; FeSSIF, 24 hours",0.20
same,pH of the filtrate,"[1]; FeSSIF, 24 hours",5.0
same,S (dynamic solubility),"[1]; H2O, 1 hour",2.5
same,pH of the filtrate,"[1]; H2O, 1 hour",4.5
same,S (dynamic solubility),"[1]; H2O, 2 hours",2.6
same,pH of the filtrate,"[1]; H2O, 2 hours",4.5
same,S (dynamic solubility),"[1]; H2O, 4 hours",2.4
same,pH of the filtrate,"[1]; H2O, 4 hours",4.5
same,S (dynamic solubility),"[1]; H2O, 24 hours",2.5
same,pH of the filtrate,"[1]; H2O, 24 hours",4.4
same,S (dynamic solubility),"[1]; SGF, 1 hour",6.9
same,pH of the filtrate,"[1]; SGF, 1 hour",2.7
same,S (dynamic solubility),"[1]; SGF, 2 hours",completely dissolved
same,S (dynamic solubility),"[1]; SGF, 4 hours",completely dissolved
same,S (dynamic solubility),"[1]; SGF, 24 hours",6.4
same,pH of the filtrate,"[1]; SGF, 24 hours",2.7
same,Moisture adsorption (25° C./80% RH),[2]; 25° C./80% RH,6.43%
same,Hygroscopicity,[2]; 25° C.,Hygroscopic
same,T/C (relative tumor proliferation rate),"[3]; 7.5 mg/kg oral once a day, day 3",97.1%
same,T/C (relative tumor proliferation rate),"[3]; 7.5 mg/kg oral once a day, day 7",80.6%
same,T/C (relative tumor proliferation rate),"[3]; 7.5 mg/kg oral once a day, day 10",76.3%
same,T/C (relative tumor proliferation rate),"[3]; 7.5 mg/kg oral once a day, day 14",68.2%
same,T/C (relative tumor proliferation rate),"[3]; 7.5 mg/kg oral once a day, day 18",66.5%
same,T/C (relative tumor proliferation rate),"[3]; 7.5 mg/kg oral once a day, day 21",58.8%
same,T/C (relative tumor proliferation rate),"[3]; 15 mg/kg oral once a day, day 3",76.0%
same,T/C (relative tumor proliferation rate),"[3]; 15 mg/kg oral once a day, day 7",49.9%
same,T/C (relative tumor proliferation rate),"[3]; 15 mg/kg oral once a day, day 10",43.8%
same,T/C (relative tumor proliferation rate),"[3]; 15 mg/kg oral once a day, day 14",37.1%
same,T/C (relative tumor proliferation rate),"[3]; 15 mg/kg oral once a day, day 18",33.0%
same,T/C (relative tumor proliferation rate),"[3]; 15 mg/kg oral once a day, day 21",26.2%
same,Purity,"[4]; 25° C./60% RH, 1 week",99.13 area %
same,Purity,"[4]; 40° C./75% RH, 1 week",99.13 area %
same,Purity,[4]; Starting,99.23 area %
